Test results published in patent publication US20250333405A1, “ANTAGONISTS OF GPR39 PROTEIN” (VASOCARDEA, INC., priority 2024, published 2025).

molecular target: T1, human GPR39 receptor (Homo sapiens, UniProt O43194); assay: Intracellular calcium response (FLIPR, Calcium-6) in PC3 cells, antagonism of agonist C3 (TC-G 1008) at EC90; assay type: cell-based; conditions: functional pKi (-Log10Ki) by modified Cheng-Prusoff from IC50; PC3 cells endogenously expressing human GPR39; 30 μM ZnCl2; agonist C3 (TC-G 1008) at EC90 1.5 μM; read-out: fpKi activity
T1 construct: PC3 Cells, Expressing the Endogenous Human GPR39 Receptor; endogenous in cells; host or cells: PC3 (human prostate adenocarcinoma) cells
T1 sequence (O43194 1-453): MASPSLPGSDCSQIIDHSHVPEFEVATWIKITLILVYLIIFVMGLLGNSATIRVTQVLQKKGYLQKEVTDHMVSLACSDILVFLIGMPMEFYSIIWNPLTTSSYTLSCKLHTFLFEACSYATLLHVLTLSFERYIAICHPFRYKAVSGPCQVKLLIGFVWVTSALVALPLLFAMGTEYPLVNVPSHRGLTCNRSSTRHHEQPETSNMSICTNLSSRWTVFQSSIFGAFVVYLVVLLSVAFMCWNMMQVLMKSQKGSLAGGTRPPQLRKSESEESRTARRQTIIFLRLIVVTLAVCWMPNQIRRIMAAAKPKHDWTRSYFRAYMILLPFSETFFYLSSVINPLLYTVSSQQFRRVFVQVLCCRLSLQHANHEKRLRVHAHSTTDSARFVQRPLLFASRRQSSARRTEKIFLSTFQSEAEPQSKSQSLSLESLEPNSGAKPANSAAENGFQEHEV
How it was run: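 Calcium-6-loaded cells in HEPES buffer pH 7.4 were given compound with 30 μM final ZnCl2 (0.32% DMSO) for 10 min, then challenged with 1.5 μM C3. Baseline-subtracted peak fluorescence expressed as % inhibition of the C3 response; IC50 from four-parameter logistic fit, reported as binned fpKi.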

Compound | Ki
CN1CCN(C(=O)c2cc3[nH]c(C4CC4)nc3cc2N2CCCC2)C(c2ccccc2)C1 (stereo not drawn) [Example 113, (2-cyclopropyl-6-pyrrolidin-1-yl-3H-benzimidazol-5-yl)-(4-methyl-2-phenylpiperazin-1-yl)methanone] | > 6310 nM
Cc1nc2cc(N3CCCC3)c(C(=O)N3CCN(C)CC3c3ccccc3)cc2[nH]1 (stereo not drawn) [Example 114, (4-methyl-2-phenylpiperazin-1-yl)-(2-methyl-6-pyrrolidin-1-yl-3H-benzimidazol-5-yl)methanone] | > 6310 nM
CN1CCN(C(=O)c2cc(F)c(NC(=O)C3CC3)nc2N2CCCC2)C(c2ccccc2)C1 (stereo not drawn) [Example 115, N-[3-fluoro-5-(4-methyl-2-phenylpiperazine-1-carbonyl)-6-pyrrolidin-1-ylpyridin-2-yl]cyclopropanecarboxamide] | 1260 to 6310 nM
O=C(Nc1ccc(C(=O)N2CCS(=O)(=O)CC2)c(-n2ccc(C(F)F)n2)c1)C1CC1 [Example 116, N-[3-[3-(difluoromethyl)pyrazol-1-yl]-4-(1,1-dioxo-1,4-thiazinane-4-carbonyl)phenyl]cyclopropanecarboxamide] | 63.1 to 251 nM
N#Cc1ccn(-c2cc(NC(=O)C3CC3)ccc2C(=O)N2CCS(=O)(=O)CC2)n1 [Example 117, N-[3-(3-cyanopyrazol-1-yl)-4-(1,1-dioxo-1,4-thiazinane-4-carbonyl)phenyl]cyclopropanecarboxamide] | 1260 to 6310 nM
CC(C)(C)c1ccn(-c2cc(NC(=O)C3CC3)ccc2C(=O)N2CCS(=O)(=O)CC2)n1 [Example 118, N-[3-(3-tert-butylpyrazol-1-yl)-4-(1,1-dioxo-1,4-thiazinane-4-carbonyl)phenyl]cyclopropanecarboxamide] | ≤ 50.1 nM
O=C(Nc1ccc(C(=O)N2CCS(=O)(=O)CC2)c(N2CCCC2=O)c1)C1CC1 [Example 123, N-[4-(1,1-dioxo-1,4-thiazinane-4-carbonyl)-3-(2-oxopyrrolidin-1-yl)phenyl]cyclopropanecarboxamide] | > 6310 nM
CN1CCN(C(=O)c2ccc(NC(=O)C3CC3)cc2N2CCCC2=O)C(c2ccccc2)C1 (stereo not drawn) [Example 124, N-[4-(4-methyl-2-phenylpiperazine-1-carbonyl)-3-(2-oxopyrrolidin-1-yl)phenyl]cyclopropanecarboxamide] | > 6310 nM

Other lines, results leading:

Ki | Compound
≤ 50.1 nM | O=C(Nc1ccc(C(=O)N2CCC(F)(F)CC2)c(-n2ccc(C(F)(F)F)n2)c1)C1CC1 [Example 119, N-[4-(4,4-difluoropiperidine-1-carbonyl)-3-[3-(trifluoromethyl)pyrazol-1-yl]phenyl]cyclopropanecarboxamide]
316 to 1000 nM | Cc1nnc(-c2ccc(C(=O)N3CCC(C#N)CC3)c(-c3ccn(C(C)C)n3)c2)[nH]1 [Example 120, 1-[2-(1-isopropylpyrazol-3-yl)-4-(5-methyl-4H-1,2,4-triazol-3-yl)benzoyl]piperidine-4-carbonitrile]
≤ 50.1 nM | Cc1nnc(-c2ccc(C(=O)N3CCC(C(F)(F)F)CC3)c(-n3ccc(C4CC4)n3)c2)[nH]1 [Example 121, [2-(3-cyclopropylpyrazol-1-yl)-4-(5-methyl-4H-1,2,4-triazol-3-yl)phenyl]-[4-(trifluoromethyl)piperidin-1-yl]methanone]
≤ 50.1 nM | Cc1nnc(-c2ccc(C(=O)N3CCC(F)(F)CC3)c(-n3ccc(C(C)(C)C)n3)c2)[nH]1 [Example 122, [2-(3-tert-butylpyrazol-1-yl)-4-(5-methyl-4H-1,2,4-triazol-3-yl)phenyl]-(4,4-difluoropiperidin-1-yl)methanone]
